Assay results published in patent publication US20220125053A1, “Pesticidal Mixtures” (BASF SE, priority 2019, published 2022).

Key:
[1] = test system: Qoi resistant isolate of Septoria tritici; assay: Microtest: activity against leaf blotch on wheat caused by Septoria tritici (SEPTTR), Qoi resistant isolate; format: cell-based; settings: single compound, 7 days after inoculation
Description: (§1) The active compounds were formulated separately as a stock solution having a concentration of 10000 ppm in dimethyl sulfoxide.
(§2) 2. Activity against leaf blotch on wheat caused by Septoria tritici (SEPTTR) The stock solutions were mixed according to the ratio, pipetted onto a micro titer plate (MTP) and diluted with water to the stated concentrations. A spore suspension of a Qoi resistant isolate of Septoria tritici in an aqueous biomalt or yeast-bactopeptone-glycerine or DOB solution was then added. The plates were placed in a water vapor-saturated chamber at a temperature of 18° C. Using an absorption photometer, the MTPs were measured at 405 nm 7 days after the inoculation.
(§3) The measured parameters were compared to the growth of the active compound-free control variant (100%) and the fungus-free blank value to determine the relative growth in % of the pathogens in the respective active compounds.
(§4) These percentages were converted into efficacies.
(§5) An efficacy of 0 means that the growth level of the pathogens corresponds to that of the untreated control; an efficacy of 100 means that the pathogens were not growing.
(§6) The expected efficacies of active compound mixtures were determined using Colby's formula [R. S. Colby, “Calculating synergistic and antagonistic responses of herbicide combinations”, Weeds 15, 20-22 (1967)] and compared with the observed efficacies.

Microdochium nivale = assay: Microtest: activity against Microdochium nivale (MONGNI); format: cell-based; settings: single compound, 7 days after inoculation
Experimental: as §1
as §2, with “1.” for “2.”, “Microdochium nivale (MONGNI)” for “leaf blotch on wheat caused by Septoria tritici (SEPTTR)”, “Microdochium nivale” for “a Qoi resistant isolate of Septoria tritici”
as §3, §4, §5, §6

| SMILES | Observed efficacy ([1]; 0.004 ppm) | Observed efficacy ([1]; 0.016 ppm) | Observed efficacy ([1]; 0.063 ppm) | Observed efficacy (Microdochium nivale; 0.063 ppm) | Observed efficacy (Microdochium nivale; 0.016 ppm) |
| --- | --- | --- | --- | --- | --- |
| CC(C)c1ccc(Cl)cc1CN(C(=O)c1c(C(F)F)nn(C)c1F)C1CC1 [Isoflucypram, N-(5-chloro-2-isopropylbenzyl)-N-cyclopropyl-3-(difluoromethyl)-5-fluoro-1-methyl-1H-pyrazole-4-carboxamide] | 0 | 5 | 34 | 40 |  |
| Cc1cccc(-n2nnn(C)c2=O)c1COc1ccn(-c2ccc(Cl)cc2)n1 [Metyltetraprol, 1-[2-[[1-(4-chlorophenyl)pyrazol-3-yl]oxymethyl]-3-methyl-phenyl]-4-methyl-tetrazol-5-one] |  | 0 | 1 |  | 32 |
